Assay results published in US9867886B2, “Complex in which anti-cotinine antibody is bound to conjugate of cotinine and binding substance, and use thereof” (SNU R&DB FOUNDATION, priority 2011, dated 2018).
m = 2'-O-methyl; r = 2'-OH (RNA); f = 2'-fluoro

Key:
[1] = in vivo; cited from earlier work
humans = conditions: cited from earlier work
mouse = conditions: cited from earlier work
[2] = Pharmacokinetics of cotinine-pegaptanib and its anti-cotinine IgG complex in mice (serum VEGF ELISA); assay type: in vivo; conditions: ICR mouse, tail vein, 0.135 mg/kg
Procedure: Male wild-type ICR mouse aged from 4 to 6 weeks were injected through tail vein with cotinine-pegaptanib (0.135 mg/kg) and a cotinine-pegaptanib (0.135 mg/kg)/anti-cotinine IgG (1 mg/kg) complex, diluted in 100 μL of PBS. Each peripheral blood was obtained through the orbital plexus at 0, 0.5, 1, 1.5 and 2 hours after the injection, and the obtained peripheral blood was maintained at a room temperature for 30 minutes then centrifuged at 800 g for 15 minutes to collect supernatant only so that serum was obtained, and analyzed by using ELISA.
Each well of a 96-well ELISA plate was coated with 50 ng of human VEGF dissolved in PBS overnight, and then blocked by PBSB. Then, each serum was diluted in PBSB at a ratio of 1:100, and added to each well with 100 nM of an anti-cotinine IgG The plate was maintained at a room temperature for one hour and washed with PBS-T, and then HRP-bound rabbit anti-human Fc specific IgG (Thermo Fisher Scientific) was added to each well. The resultant mixture was maintained at room temperature for one hour. Subsequently, 3,3′,5,5′-tetramethylbenzidine (TMB) (Thermo Fisher Scientific) was added as a substrate to the resultant mixture, and kept at a room temperature for 15 minutes, followed by measuring the optical density at 650 nm.

Row | Molecule | half-life in serum [1] | side effects (humans; 4-day administration at a daily dose of 1.8 g) | physiological activity; physiological and behavioral changes (humans; humans, maximally 160 mg for three days) | LD50 (mouse) | degradation after injection into the body [2]
1 | CN1C(=O)CC[C@H]1c1cccnc1 [cotinine] | about 16 hours | no particular side effects have not been reported | any physiological and behavioral changes have not been reported | 2000 to 4000 mg/kg | –
2 | cotinine-pegaptanib: nucleic acid part of pegaptanib RNA aptamer (SEQ ID NO: 5) conjugated with cotinine via amino C6 linker (CGGAAUCAGUGAAUGCUUAUACAUCCG; sugars from the 5' end fmmrrffmmfmmmfmfffmfmfmfffm, backbone not given here; cotinine conjugated via amino C6 linker, further chemistry not fully specified) | – | – | – | – | degraded immediate after injection into the body
